These results are taken from US8754242B2, “Herbicides” (Syngenta Crop Protection LLC, priority 2007, dated 2014).

Type in all cases: in vivo
Assay [1] relates to wheat. In words: Test Example 3 crop injury of T1 alone and with safeners. Particulars: safener (if any) at 1:1, 2-3 leaf stage, assessed 14-21 days after application. An excerpt:
(§1) The test compound T1 was applied at 100 and 200 g ai/ha, alone and in combination with a range of safeners as 1:1 mixtures (for example at 100 g+100 g; 200 g+200 g) to the test plants—wheat and maize—at the 2-3 leaf stage. A 4-way safener mixture (cloquintocet-mexyl, benoxacor, fluxofenim and compound A*) was also applied with the test compound so that each safener was used a 1:1 ratio (for example at 100+100+100+100+100 g ai/ha). Assessments were made at 14-21 days after application.

For assay [2], the system named is maize. Described as above. The note with it: safener (if any) at 1:1, 2-3 leaf stage, assessed 14-21 days after application.
Excerpt: as §1

The test system of assay [3] is Avena fatua (AVEFA). As to the kind of experiment: Test Example 1 post-emergence herbicidal activity. Particulars: rate 125 g/ha, evaluated 15 days later; for pest or weed control at 125 g/ha: 360 h, read-out: Post-emergence activity AVEFA (100=total damage to plant; 0=no damage to plant). In a few lines:
(§2)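 Once sown in standard soil, pots received an aqueous spray of the formulated active ingredient, either after one day or after ten days of controlled glasshouse growth. Plants then grew under optimum greenhouse conditions. Herbicidal effect was assessed visually 15 (post-emergence) or 20 (pre-emergence) days later, 100 meaning total plant damage.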

The test system of assay [4] is Setaria faberi (SETFA). As to the kind of experiment: Test Example 1 post-emergence herbicidal activity. The note with it: rate 125 g/ha, evaluated 15 days later; for pest or weed control at 125 g/ha: 360 h, read-out: Post-emergence activity SETFA (100=total damage to plant; 0=no damage to plant). In outline:
as §2

In assay [5] the test system is Echinochloa crus-galli (ECHCG). As to the kind of experiment: Test Example 1 post-emergence herbicidal activity. The note with it: rate 125 g/ha, evaluated 15 days later; for pest or weed control at 125 g/ha: 360 h, read-out: Post-emergence activity ECHCG (100=total damage to plant; 0=no damage to plant). In outline:
as §2

Assay [6] concerns Digitaria sanguinalis (DIGSA). As to the kind of experiment: Test Example 1 post-emergence herbicidal activity. The note with it: rate 125 g/ha, evaluated 15 days later; for pest or weed control at 125 g/ha: 360 h, read-out: Post-emergence activity DIGSA (100=total damage to plant; 0=no damage to plant). In a few lines: as §2
For assay [7], the system named is Lolium perenne (LOLPE). In words: Test Example 1 post-emergence herbicidal activity. The note with it: rate 125 g/ha, evaluated 15 days later; for pest or weed control at 125 g/ha: 360 h, read-out: Post-emergence activity LOLPE (100=total damage to plant; 0=no damage to plant). In a few lines:
as §2

Assay [8] has as its system Alopecurus myosuroides (ALOMY). In words: Test Example 1 post-emergence herbicidal activity. The note with it: rate 125 g/ha, evaluated 15 days later; for pest or weed control at 125 g/ha: 360 h, read-out: Post-emergence activity ALOMY (100=total damage to plant; 0=no damage to plant). In outline:
as §2

Assay [9] concerns Avena fatua (AVEFA). In words: Test Example 1 pre-emergence herbicidal activity. Particulars: rate 250 g/ha, evaluated 20 days later; for pest or weed control at 250 g/ha: Avena fatua, 480 h, read-out: Pre-emergence activity AVEFA (100=total damage to plant; 0=no damage to plant). In a few lines:
as §2

The subject of assay [10] is Setaria faberi (SETFA). In words: Test Example 1 pre-emergence herbicidal activity. The note with it: rate 250 g/ha, evaluated 20 days later; for pest or weed control at 250 g/ha: Setaria faberi, 480 h, read-out: Pre-emergence activity SETFA (100=total damage to plant; 0=no damage to plant). In outline:
as §2

The subject of assay [11] is Echinochloa crus-galli (ECHCG). In words: Test Example 1 pre-emergence herbicidal activity. Particulars: rate 250 g/ha, evaluated 20 days later; for pest or weed control at 250 g/ha: Echinochloa crus-galli, 480 h, read-out: Pre-emergence activity ECHCG (100=total damage to plant; 0=no damage to plant). In outline:
as §2

For assay [12], the system named is Digitaria sanguinalis (DIGSA). As to the kind of experiment: Test Example 1 pre-emergence herbicidal activity. The note with it: rate 250 g/ha, evaluated 20 days later; for pest or weed control at 250 g/ha: Digitaria sanguinalis, 480 h, read-out: Pre-emergence activity DIGSA (100=total damage to plant; 0=no damage to plant). In a few lines:
as §2

Assay [13] has as its system Lolium perenne (LOLPE). In words: Test Example 1 pre-emergence herbicidal activity. Particulars: rate 250 g/ha, evaluated 20 days later; for pest or weed control at 250 g/ha: Lolium perenne, 480 h, read-out: Pre-emergence activity LOLPE (100=total damage to plant; 0=no damage to plant). In outline:
as §2

In assay [14] the test system is Alopecurus myosuroides (ALOMY). In words: Test Example 1 pre-emergence herbicidal activity. Particulars: rate 250 g/ha, evaluated 20 days later; for pest or weed control at 250 g/ha: Alopecurus myosuroides, 480 h, read-out: Pre-emergence activity ALOMY (100=total damage to plant; 0=no damage to plant). In outline:
as §2

Assay [15] deals with winter barley 'Antoniya'. As to the kind of experiment: Test Example 2 post-emergence crop injury, alone and with cloquintocet-mexyl. The note with it: Adigor 0.5%, 2-3 leaf seedlings, assessed 14-21 days after application. An excerpt:
(§3) Test compounds were applied post-emergence at 60 g ai/ha, alone and in combination with cloquintocet-mexyl at 60 g ai/ha; the adjuvant Adigor (0.5%) was included for every treatment. The application volume was […]. Target plants were 2-3 leaf seedlings of winter wheat ‘Hereward’ and winter barley ‘Antoniya’ grown in a greenhouse under ambient conditions. Assessments were made at 14-21 days after application.

The subject of assay [16] is winter wheat 'Hereward'. The assay is described as above. Particulars: Adigor 0.5%, 2-3 leaf seedlings, assessed 14-21 days after application.
Excerpt: as §3

Where [17] appears, read: compound 60 g/ha in combination with cloquintocet-mexyl 60 g/ha.
[18] abbreviates: compound 60 g/ha, cloquintocet-mexyl 0 g/ha.

The structures appear in SMILES notation.

On to `CCc1cc(C)cc(CC)c1C1=C(O)[C@H]2[C@@H](C1=O)[C@@H]1CC[C@H]2O1` [Example T1], for which, in assay [1] (T1 at 100 g ai/ha), the “Wheat Injury (%) 100 g/ha” value is reported as 83%. Further, in assay [1] (T1 at 200 g ai/ha), the “Wheat Injury (%) 200 g/ha” value came out at 92%. Besides, the “Maize Injury (%) 100 g/ha” value in assay [2] (T1 at 100 g ai/ha) amounted to 90%. The “Maize Injury (%) 200 g/ha” value in assay [2] (T1 at 200 g ai/ha) stood at 100%. Further, the “Post-emergence activity AVEFA (100=total damage to plant; 0=no damage to plant)” value in [3] is 90. Moreover, the “Post-emergence activity SETFA (100=total damage to plant; 0=no damage to plant)” value in [4] turned out to be 100. Also, in assay [5], the “Post-emergence activity ECHCG (100=total damage to plant; 0=no damage to plant)” value stood at 100. The “Post-emergence activity DIGSA (100=total damage to plant; 0=no damage to plant)” value in [6] is 100. The “Post-emergence activity LOLPE (100=total damage to plant; 0=no damage to plant)” value in assay [7] came out at 80. Besides, the “Post-emergence activity ALOMY (100=total damage to plant; 0=no damage to plant)” value in assay [8] is given as 90. Further, the “Pre-emergence activity AVEFA (100=total damage to plant; 0=no damage to plant)” value in assay [9] amounted to 100. Besides, in assay [10], the “Pre-emergence activity SETFA (100=total damage to plant; 0=no damage to plant)” value is 100. Also, in assay [11], the “Pre-emergence activity ECHCG (100=total damage to plant; 0=no damage to plant)” value is given as 100. Moreover, in assay [12], the “Pre-emergence activity DIGSA (100=total damage to plant; 0=no damage to plant)” value amounted to 100. In addition, in [13], the “Pre-emergence activity LOLPE (100=total damage to plant; 0=no damage to plant)” value was 100. Besides, in assay [14], the “Pre-emergence activity ALOMY (100=total damage to plant; 0=no damage to plant)” value was 100. Also, the “Crop Injury (%) Barley” value in assay [15] (setting [17]) is listed as 73%; in [15] (setting [18]), 99%. Also, the “Crop Injury (%) Wheat” value in assay [16] (setting [17]) is recorded as 18%; in [16] (setting [18]), 85%.

As to `Cc1cc(C)c(C2=C(O)[C@H]3[C@@H](C2=O)[C@@H]2CC[C@H]3O2)c(C)c1` [Example T3], the pest or weed control at 125 g/ha was 30% in assay [3]; 90% in assay [4]; 100% in assay [5]; 100% in assay [6]; 60% in [7]; 60% in assay [8]. The pest or weed control at 250 g/ha amounted to 80% in assay [9]; 70% in assay [10]; 100% in assay [11]; 80% in [12]; 100% in assay [13]; 90% in assay [14]. Further, the “Crop Injury (%) Barley” value in [15] (setting [17]) and in assay [15] (setting [18]) was 5% throughout. In addition, the “Crop Injury (%) Wheat” value in assay [16] (setting [17]) amounted to 0%; in assay [16] (setting [18]) it was 28%.

With `Cc1cc(C)c(C2=C(O)[C@@H]3[C@@H]4O[C@@H](C[C@H]4c4cnccn4)[C@@H]3C2=O)c(C)c1` [Example T187], the pest or weed control at 125 g/ha in assay [3] stood at 10%; in [4], 60%; in [5] it was 70%; in assay [6] it was 60%; in assay [7] it was 40%; in [8] it was 70%. The pest or weed control at 250 g/ha in [9] worked out at 20%; in assay [10] it was 40%; in assay [11] it was 10%; in assay [12], 20%; in assay [13] it was 60%; in assay [14], 10%.

For `Cc1cc(C)c(C2=C(O)[C@@H]3[C@@H]4O[C@@H](C[C@H]4c4cnc5ccccc5n4)[C@@H]3C2=O)c(C)c1` [Example T188], the pest or weed control at 125 g/ha in assay [3] came out at 70%; in [4], 70%; in assay [5], 100%; in assay [6] it was 100%; in [7], 30%; in assay [8] it was 80%. Moreover, the pest or weed control at 250 g/ha is 0% in [9]; 70% in assay [10]; 60% in assay [11]; 100% in assay [12]; 50% in assay [13]; 40% in assay [14].

With `Cc1cc(C)c(C2=C(O)[C@@H]3[C@@H]4O[C@@H](C[C@H]4c4nc(C)cnc4C)[C@@H]3C2=O)c(C)c1` [Example T193], the pest or weed control at 125 g/ha in [3] was determined as 40%; in [4], 30%; in assay [5], 60%; in assay [6], 60%; in assay [7], 30%; in assay [8] it was 60%. The pest or weed control at 250 g/ha in assay [9] turned out to be 30%; in assay [10], 40%; in assay [11], 20%; in [12] it was 20%; in assay [13], 60%; in assay [14], 20%.

Consider `CCc1nc2ccccc2nc1[C@@H]1C[C@@H]2O[C@H]1[C@H]1C(O)=C(c3c(C)cc(C)cc3C)C(=O)[C@H]12` [Example T194], for which the pest or weed control at 125 g/ha turned out to be 0% in [3]; 0% in assay [4]; 80% in assay [5]; 70% in assay [6]; 20% in [7]; 30% in assay [8]. In addition, the pest or weed control at 250 g/ha is 20% in assay [9]; 50% in assay [10]; 50% in assay [11]; 70% in assay [12]; 20% in assay [13]; 0% in assay [14].

As to `Cc1cc(C)c(C2=C(O)[C@@H]3[C@@H]4O[C@@H](C[C@H]4c4ncc(C(F)(F)F)cc4C(F)(F)F)[C@@H]3C2=O)c(C)c1` [Example T203], the pest or weed control at 125 g/ha in [3] stood at 10%; in assay [4] it was 0%; in assay [5], 50%; in assay [6], 50%; in assay [7], 10%; in assay [8], 20%. The pest or weed control at 250 g/ha in [9] was determined as 20%; in assay [10], 70%; in assay [11] it was 90%; in assay [12], 70%; in [13] it was 60%; in assay [14], 20%.

For `COc1cc(C)c(C2=C(O)[C@H]3[C@@H](C2=O)[C@@H]2CC[C@H]3O2)c(C)c1` [Example T208], the pest or weed control at 125 g/ha in [3] is 70%; in assay [4] it was 70%; in assay [5], 80%; in assay [6] it was 50%; in [7], 80%; in assay [8] it was 70%. For the same molecule, the pest or weed control at 250 g/ha stood at 70% in [9]; 80% in [10]; 80% in [11]; 70% in assay [12]; 80% in assay [13]; 50% in assay [14].
